Paper PMC4387075 (Neuropharmacology, 2015)
Entries after “also recorded” stand apart in the source; their conditions may differ. Where two headings read alike, the source gives them in different places.

Columns and labels:
[1] = test system: cerebellar granule cells; test: Cell viability; details: for IC50: read-out: IC50 for inhibition of glutamate neuroprotection, 1 mM glutamate in K5; for effect of agonist on viability of granule cells in K5: K5, 16 hours, MTT; for maximum effect on granule cell viability: percent of viability in K25 cultures, K5 media, 16 hours; for effect of antagonist on NMDA-induced increase in granule cell viability: 1 mM NMDA in K5, MK801 1 μM, JNJ16259685 300 μM
[2] = target: mGlu1 receptors (Rattus norvegicus, UniProt P23385); test: PI hydrolysis; type: cell-based; details: for PI hydrolysis Emax, % glu: efficacy as percentage of glutamate efficacy, mean +/- 95% confidence interval; for agonist bias between PI hydrolysis and neuroprotection: from Emax values of both responses (Figure 7); for effect of antagonist on PI hydrolysis stimulated by quisqualate, DHPG and ACPD: agonists 100 μM, JNJ16259685 300 μM, CPCCOEt 200 μM, MPEP 10 μM
[3] = test system: mGlu1 receptor-expressing CHO cells; details: ref Emery et al., 2012, cited from earlier work; for ERK phosphorylation or protection: transfected CHO cells; for protection from serum starvation: mGlu1 receptor-expressing CHO cells
[4] = test system: mGlu1 receptor; details: mGlu1 receptor-expressing CHO cells; ref Emery et al., 2012; cited from earlier work
[5] = read-out: PI hydrolysis EC50, mean (95% confidence interval)

Chain of mGlu1 receptors (P23385 19-1199): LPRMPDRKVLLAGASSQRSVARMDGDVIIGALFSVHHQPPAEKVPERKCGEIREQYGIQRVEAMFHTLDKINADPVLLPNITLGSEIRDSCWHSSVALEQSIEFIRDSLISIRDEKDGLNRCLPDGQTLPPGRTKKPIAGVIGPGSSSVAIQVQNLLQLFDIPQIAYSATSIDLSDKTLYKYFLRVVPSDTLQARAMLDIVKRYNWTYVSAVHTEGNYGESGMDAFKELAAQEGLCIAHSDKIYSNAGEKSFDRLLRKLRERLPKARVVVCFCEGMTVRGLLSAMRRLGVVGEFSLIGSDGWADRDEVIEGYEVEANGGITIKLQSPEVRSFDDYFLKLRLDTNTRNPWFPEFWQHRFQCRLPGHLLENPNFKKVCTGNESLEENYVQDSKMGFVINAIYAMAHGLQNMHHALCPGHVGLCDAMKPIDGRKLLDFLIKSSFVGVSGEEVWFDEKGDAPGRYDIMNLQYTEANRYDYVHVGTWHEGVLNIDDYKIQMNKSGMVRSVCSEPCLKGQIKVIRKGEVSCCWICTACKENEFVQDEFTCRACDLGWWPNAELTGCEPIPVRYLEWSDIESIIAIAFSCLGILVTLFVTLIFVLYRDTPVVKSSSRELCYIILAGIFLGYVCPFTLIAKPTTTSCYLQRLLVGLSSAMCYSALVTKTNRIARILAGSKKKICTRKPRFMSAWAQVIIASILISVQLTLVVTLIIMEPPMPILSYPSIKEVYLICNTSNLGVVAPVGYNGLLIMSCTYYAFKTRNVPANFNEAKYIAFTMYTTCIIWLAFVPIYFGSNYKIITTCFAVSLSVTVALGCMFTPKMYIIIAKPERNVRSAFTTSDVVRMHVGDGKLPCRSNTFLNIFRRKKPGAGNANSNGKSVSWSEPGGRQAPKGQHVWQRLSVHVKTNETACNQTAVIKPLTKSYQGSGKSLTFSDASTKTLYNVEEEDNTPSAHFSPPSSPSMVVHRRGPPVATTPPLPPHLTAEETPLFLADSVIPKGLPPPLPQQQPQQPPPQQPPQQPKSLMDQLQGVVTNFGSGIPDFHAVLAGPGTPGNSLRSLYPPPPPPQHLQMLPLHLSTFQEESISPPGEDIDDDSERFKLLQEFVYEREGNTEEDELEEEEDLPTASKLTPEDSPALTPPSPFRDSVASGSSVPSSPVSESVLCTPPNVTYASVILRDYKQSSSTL

Question: With “7-(Hydroxyimino)cyclopropa[b]chromen-1a-carboxylate ethyl ester [CPCCOEt]” as the compound, how does the IC50 [1] read?
Answer: 123 µM

Question: For `N[C@@]1(C(=O)O)CC[C@@H](C(=O)O)C1` [ACPD, (1S,3R)-1-aminocyclopentane-1,3-dicarboxylic acid], which “effect of agonist on viability of granule cells in K5” value (“effect of agonist” below) [1] is on record?
Answer: not significantly increased

Question: And the “maximum effect on granule cell viability” value [1]?
Answer: 49 ± 5%

Question: And the “agonist type for PI hydrolysis compared to glutamate” value [2]?
Answer: partial agonists

Question: What about the “PI hydrolysis at 100 μM agonist compared to Locke's media only” value [2] of the same compound?
Answer: significant increase

Question: And the “PI hydrolysis Emax, % glu” value [2]?
Answer: 66 ± 1.4 % glu

Question: And the “agonist bias between PI hydrolysis and neuroprotection” value [2]?
Answer: completely biased towards PI hydrolysis

Question: Which results are given for `N[C@@H](CC(=O)O)C(=O)O` [Aspartate, aspartate]?
Answer: effect of agonist on viability of granule cells in K5 [1]: prevented; EC50 [2]: 19 µM; PI hydrolysis Emax, % glu [2]: 103 ± 7.8 % glu; agonist bias between PI hydrolysis and neuroprotection [2]: balanced agonists

Question: For `N[C@@H](CS(=O)(=O)O)C(=O)O` [Cysteic acid], which “effect of agonist” value [1] is on record?
Answer: prevented

Question: And the “PI hydrolysis Emax, % glu” value [2]?
Answer: 87 ± 4.2 % glu

Question: And the EC50 [2, 5]?
Answer: 22 µM

Question: Which “effect of agonist” value [1] does the source give for `N[C@@H](CS(=O)O)C(=O)O` [Cysteine sulfinic acid] here?
Answer: prevented

Question: What about the “PI hydrolysis Emax, % glu” value [2] of the same compound?
Answer: 82 ± 10 % glu

Question: And the EC50 [2, 5]?
Answer: 29 µM

Question: What does the source list for `NC(C(=O)O)c1cc(O)cc(O)c1` (stereo not drawn) [DHPG, 3,5-dihydroxyphenylglycine]?
Answer: effect of agonist on viability of granule cells in K5 [1]: not significantly increased; ERK phosphorylation or protection [3]: do not stimulate; EC50 [2]: 23 µM; agonist type for PI hydrolysis compared to glutamate [2]: partial agonists; PI hydrolysis at 100 μM agonist compared to Locke's media only [2]: significant increase; PI hydrolysis Emax, % glu [2]: 69 ± 3.7 % glu; agonist bias between PI hydrolysis and neuroprotection [2]: completely biased towards PI hydrolysis

Question: With `N[C@@H](CCC(=O)O)C(=O)O` [Glutamate, glutamate] as the compound, how does the “effect of agonist” value [1] read?
Answer: prevented

Question: What about the “maximum effect on granule cell viability” value [1] of the same compound?
Answer: 65%

Question: With `N[C@@H](CCS(=O)(=O)O)C(=O)O` [Homocysteic acid] as the compound, how does the “effect of agonist” value [1] read?
Answer: prevented

Question: What about the “PI hydrolysis Emax, % glu” value [2] of the same compound?
Answer: 84 ± 7.4 % glu

Question: And the EC50 [2, 5]?
Answer: 29 µM

Question: For `COC1CCC(C(=O)c2ccc3nc4c(cc3c2)CCCO4)CC1` (stereo not drawn) [JNJ16259685], which “effect of antagonist on NMDA-induced increase in granule cell viability” value [1] is on record?
Answer: blocked

Question: What about the IC50 [1] of the same compound?
Answer: 19.8 µM

Question: And the “effect of antagonist on PI hydrolysis stimulated by quisqualate, DHPG and ACPD” value [2]?
Answer: significantly decreased

Question: With `C[C@]12N[C@H](Cc3ccccc31)c1ccccc12` [MK801] as the compound, how does the “effect of antagonist on NMDA-induced increase in granule cell viability” value [1] read?
Answer: significantly inhibited

Question: Which “effect of antagonist on PI hydrolysis stimulated by quisqualate, DHPG and ACPD” value [2] does the source give for `Cc1cccc(C#Cc2ccccc2)n1` [MPEP] here?
Answer: no effect

Question: Which “maximum effect on granule cell viability” value [1] does the source give for `CN[C@H](CC(=O)O)C(=O)O` [NMDA, N-methyl-D-aspartate] here?
Answer: 73%

Question: With `N[C@@H](Cn1oc(=O)[nH]c1=O)C(=O)O` [Quisqualate, quisqualate] as the compound, how does the “effect of agonist” value [1] read?
Answer: not significantly increased; also recorded: no efficacy

Question: What about the “ERK phosphorylation or protection” value [3] of the same compound?
Answer: do not stimulate

Question: What about the “agonist type for PI hydrolysis compared to glutamate” value [2] of the same compound?
Answer: full agonist

Question: What about the “PI hydrolysis at 100 μM agonist compared to Locke's media only” value [2] of the same compound?
Answer: significant increase

Question: What about the “PI hydrolysis Emax, % glu” value [2] of the same compound?
Answer: 109 ± 7.8 % glu

Question: And the “agonist bias between PI hydrolysis and neuroprotection” value [2]?
Answer: completely biased towards PI hydrolysis

Question: For `O=C(O)CCCC(=O)O` [glutaric acid], which “protection from serum starvation” value [3] is on record?
Answer: able to protect

Question: And the “efficacy for PI hydrolysis” value [4]?
Answer: no efficacy

Question: Which “protection from serum starvation” value [3] does the source give for `O=C(O)CCC(=O)O` [succinic acid] here?
Answer: able to protect

Question: And the “efficacy for PI hydrolysis” value [4]?
Answer: no efficacy
